# Source: US9492471B2, “Methods of treating a disease or disorder associated with Bruton'S Tyrosine Kinase” (Celgene Avilomics Research, Inc., priority 2013, dated 2016)
# Where two headings read alike, the source gives them in different places.
# Columns and labels:
# Assay in all cases: HotSpot kinase profiling
# Type in all cases: biochemical
# CDK16/cyclin Y = target: T1, CDK16/cyclin Y (Homo sapiens, UniProt Q00536)
# T1 construct: purchased Reaction Biology Corp
# Procedure, shortened: (§1)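 P81 filtration radiometric readout; 2 h incubation at room temperature; 0.1% phosphoric acid wash; DMSO negative control; % inhibition, mean of replicate runs.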
# BMX/ETK = target: T2, BMX/ETK (Homo sapiens, UniProt P51813)
# T2 construct: purchased Reaction Biology Corp
# T2 sequence (P51813 1-675): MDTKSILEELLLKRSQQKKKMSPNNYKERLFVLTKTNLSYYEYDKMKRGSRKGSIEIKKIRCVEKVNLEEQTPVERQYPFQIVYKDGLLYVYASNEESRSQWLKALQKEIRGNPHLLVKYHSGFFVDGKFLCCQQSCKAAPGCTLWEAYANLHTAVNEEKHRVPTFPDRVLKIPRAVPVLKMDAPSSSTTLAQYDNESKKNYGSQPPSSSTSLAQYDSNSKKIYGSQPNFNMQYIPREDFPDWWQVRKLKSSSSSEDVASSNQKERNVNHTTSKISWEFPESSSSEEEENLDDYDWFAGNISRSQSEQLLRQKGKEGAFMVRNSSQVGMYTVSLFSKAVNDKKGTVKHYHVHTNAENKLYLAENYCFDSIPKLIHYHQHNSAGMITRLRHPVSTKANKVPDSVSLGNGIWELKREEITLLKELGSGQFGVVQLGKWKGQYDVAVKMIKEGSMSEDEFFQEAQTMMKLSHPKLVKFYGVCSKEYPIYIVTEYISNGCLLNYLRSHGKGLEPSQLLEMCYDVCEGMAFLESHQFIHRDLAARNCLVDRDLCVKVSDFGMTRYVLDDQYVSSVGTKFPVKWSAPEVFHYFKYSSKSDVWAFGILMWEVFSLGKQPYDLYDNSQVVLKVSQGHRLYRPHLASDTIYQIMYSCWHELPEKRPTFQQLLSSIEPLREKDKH
# Procedure, shortened: as §1
# WNK3 = target: T3, WNK3 (Homo sapiens, UniProt Q9BYP7)
# T3 construct: purchased Reaction Biology Corp
# Procedure, shortened: as §1
# LRRK2 = target: T4, LRRK2 (Homo sapiens, UniProt Q5S007)
# T4 construct: purchased Reaction Biology Corp
# Procedure, shortened: as §1
# ZIPK/DAPK3 = target: T5, ZIPK/DAPK3 (Homo sapiens, UniProt O43293)
# T5 construct: purchased Reaction Biology Corp
# Procedure, shortened: as §1
# PKCd = target: T6, PKCd (Homo sapiens, UniProt Q05655)
# T6 construct: purchased Reaction Biology Corp
# Procedure, shortened: as §1
# PKAcb = target: T7, PKAcb (Homo sapiens, UniProt P22694)
# T7 construct: purchased Reaction Biology Corp
# Procedure, shortened: as §1
# MARK3 = target: T8, MARK3 (Homo sapiens, UniProt P27448)
# T8 construct: purchased Reaction Biology Corp
# Procedure, shortened: as §1
# MLCK2/MYLK2 = target: T9, MLCK2/MYLK2 (Homo sapiens, UniProt Q9H1R3)
# T9 construct: purchased Reaction Biology Corp
# Procedure, shortened: as §1
# CLK1 = target: T10, CLK1 (Homo sapiens, UniProt P49759)
# T10 construct: purchased Reaction Biology Corp
# Procedure, shortened: as §1
# CDK4/cyclin D3 = target: T11, CDK4/cyclin D3 (Homo sapiens, UniProt P11802)
# T11 construct: purchased Reaction Biology Corp
# Procedure, shortened: as §1
# MST1/STK4 = target: T12, MST1/STK4 (Homo sapiens, UniProt Q13043)
# T12 construct: purchased Reaction Biology Corp
# T12 sequence (Q13043 1-487): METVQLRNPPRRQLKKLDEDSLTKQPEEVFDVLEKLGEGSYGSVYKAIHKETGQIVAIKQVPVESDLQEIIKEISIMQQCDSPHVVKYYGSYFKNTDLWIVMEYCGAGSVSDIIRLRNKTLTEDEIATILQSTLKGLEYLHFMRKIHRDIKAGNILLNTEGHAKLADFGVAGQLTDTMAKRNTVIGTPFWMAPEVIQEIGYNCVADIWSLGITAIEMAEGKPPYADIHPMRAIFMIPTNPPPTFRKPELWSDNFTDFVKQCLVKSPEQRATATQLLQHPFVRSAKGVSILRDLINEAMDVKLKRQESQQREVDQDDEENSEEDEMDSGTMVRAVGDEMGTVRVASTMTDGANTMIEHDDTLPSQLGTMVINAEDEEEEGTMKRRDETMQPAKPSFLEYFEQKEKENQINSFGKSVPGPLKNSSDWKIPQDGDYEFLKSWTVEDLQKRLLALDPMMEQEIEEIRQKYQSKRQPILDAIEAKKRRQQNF
# Procedure, shortened: as §1
# PYK2 = target: T13, PYK2 (Homo sapiens, UniProt Q14289)
# T13 construct: purchased Reaction Biology Corp
# Procedure, shortened: as §1
# [1] = read-out: % Enzyme Activity (relative to DMSO controls) Run 1
# [2] = read-out: % Enzyme Activity (relative to DMSO controls) Run 2
# T13 sequence (Q14289 whole entry): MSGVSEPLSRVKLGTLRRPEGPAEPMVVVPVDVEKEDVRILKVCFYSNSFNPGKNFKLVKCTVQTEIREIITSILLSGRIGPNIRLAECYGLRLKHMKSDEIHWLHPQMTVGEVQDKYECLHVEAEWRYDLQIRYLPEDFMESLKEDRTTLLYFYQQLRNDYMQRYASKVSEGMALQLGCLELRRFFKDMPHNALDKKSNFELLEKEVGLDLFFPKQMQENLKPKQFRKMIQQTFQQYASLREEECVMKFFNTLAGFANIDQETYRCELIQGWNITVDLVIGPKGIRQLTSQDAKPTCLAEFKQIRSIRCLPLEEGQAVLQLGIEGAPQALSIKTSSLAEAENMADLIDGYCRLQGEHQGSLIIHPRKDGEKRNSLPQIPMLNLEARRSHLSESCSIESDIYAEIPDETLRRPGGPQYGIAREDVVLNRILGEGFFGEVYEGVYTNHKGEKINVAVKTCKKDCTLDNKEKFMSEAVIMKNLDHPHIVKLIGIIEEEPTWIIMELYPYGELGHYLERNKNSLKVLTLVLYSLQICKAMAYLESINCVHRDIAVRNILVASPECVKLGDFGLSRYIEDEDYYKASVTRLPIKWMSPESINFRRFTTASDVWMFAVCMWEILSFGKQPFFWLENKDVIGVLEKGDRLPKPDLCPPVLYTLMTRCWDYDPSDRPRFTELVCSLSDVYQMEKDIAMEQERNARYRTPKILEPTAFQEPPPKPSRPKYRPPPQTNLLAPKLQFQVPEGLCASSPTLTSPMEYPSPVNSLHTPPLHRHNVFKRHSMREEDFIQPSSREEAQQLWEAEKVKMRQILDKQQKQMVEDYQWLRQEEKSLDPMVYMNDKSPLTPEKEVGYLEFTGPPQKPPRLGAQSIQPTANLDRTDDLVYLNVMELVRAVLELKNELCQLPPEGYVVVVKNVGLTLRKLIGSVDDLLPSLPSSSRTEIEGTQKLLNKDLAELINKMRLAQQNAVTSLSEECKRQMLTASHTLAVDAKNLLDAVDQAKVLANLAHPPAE
# T3 sequence (Q9BYP7 whole entry): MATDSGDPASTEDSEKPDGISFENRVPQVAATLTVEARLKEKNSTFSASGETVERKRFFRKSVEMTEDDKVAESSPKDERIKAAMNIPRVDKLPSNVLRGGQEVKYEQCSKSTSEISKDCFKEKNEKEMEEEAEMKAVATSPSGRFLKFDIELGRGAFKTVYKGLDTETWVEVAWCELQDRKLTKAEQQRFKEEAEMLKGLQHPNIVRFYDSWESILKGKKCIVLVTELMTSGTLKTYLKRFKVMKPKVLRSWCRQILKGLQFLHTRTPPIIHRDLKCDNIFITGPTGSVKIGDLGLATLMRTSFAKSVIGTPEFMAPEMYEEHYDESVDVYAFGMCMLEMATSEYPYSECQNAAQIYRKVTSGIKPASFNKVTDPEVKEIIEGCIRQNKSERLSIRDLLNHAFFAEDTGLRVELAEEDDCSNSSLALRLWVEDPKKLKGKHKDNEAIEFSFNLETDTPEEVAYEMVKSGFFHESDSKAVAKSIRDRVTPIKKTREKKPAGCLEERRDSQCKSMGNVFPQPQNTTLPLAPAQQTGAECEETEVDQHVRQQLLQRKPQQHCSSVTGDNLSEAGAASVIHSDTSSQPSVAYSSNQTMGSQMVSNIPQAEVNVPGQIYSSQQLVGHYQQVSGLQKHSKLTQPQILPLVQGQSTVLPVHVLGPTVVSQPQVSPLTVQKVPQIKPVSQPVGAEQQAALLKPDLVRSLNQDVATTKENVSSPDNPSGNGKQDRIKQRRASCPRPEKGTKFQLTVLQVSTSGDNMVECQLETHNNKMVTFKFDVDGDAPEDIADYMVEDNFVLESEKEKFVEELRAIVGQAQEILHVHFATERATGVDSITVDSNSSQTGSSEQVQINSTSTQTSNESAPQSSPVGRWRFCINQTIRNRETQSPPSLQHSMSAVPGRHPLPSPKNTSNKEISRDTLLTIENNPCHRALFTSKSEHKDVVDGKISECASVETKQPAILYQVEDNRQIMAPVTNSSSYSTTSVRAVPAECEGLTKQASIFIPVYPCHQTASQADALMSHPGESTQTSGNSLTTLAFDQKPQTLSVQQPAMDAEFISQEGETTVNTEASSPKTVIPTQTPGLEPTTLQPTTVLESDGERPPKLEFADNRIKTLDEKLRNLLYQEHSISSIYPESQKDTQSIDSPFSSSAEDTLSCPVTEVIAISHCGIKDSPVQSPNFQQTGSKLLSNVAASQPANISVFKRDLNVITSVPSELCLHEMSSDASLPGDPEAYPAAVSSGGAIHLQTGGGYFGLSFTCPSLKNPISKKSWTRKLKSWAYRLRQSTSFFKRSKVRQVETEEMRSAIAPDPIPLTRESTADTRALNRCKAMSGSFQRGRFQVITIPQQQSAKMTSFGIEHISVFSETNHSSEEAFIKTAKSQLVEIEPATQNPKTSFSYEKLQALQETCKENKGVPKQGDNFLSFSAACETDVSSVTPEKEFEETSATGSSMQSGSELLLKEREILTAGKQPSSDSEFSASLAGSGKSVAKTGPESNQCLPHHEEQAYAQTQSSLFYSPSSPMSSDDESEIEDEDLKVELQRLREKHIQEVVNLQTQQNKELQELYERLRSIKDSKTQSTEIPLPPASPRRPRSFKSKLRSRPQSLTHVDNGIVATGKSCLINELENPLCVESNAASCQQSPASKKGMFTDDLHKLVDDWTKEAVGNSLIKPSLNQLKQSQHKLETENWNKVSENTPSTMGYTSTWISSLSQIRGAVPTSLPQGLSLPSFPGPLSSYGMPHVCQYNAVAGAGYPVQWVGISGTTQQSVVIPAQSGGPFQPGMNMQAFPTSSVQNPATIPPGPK
# T5 sequence (O43293 whole entry): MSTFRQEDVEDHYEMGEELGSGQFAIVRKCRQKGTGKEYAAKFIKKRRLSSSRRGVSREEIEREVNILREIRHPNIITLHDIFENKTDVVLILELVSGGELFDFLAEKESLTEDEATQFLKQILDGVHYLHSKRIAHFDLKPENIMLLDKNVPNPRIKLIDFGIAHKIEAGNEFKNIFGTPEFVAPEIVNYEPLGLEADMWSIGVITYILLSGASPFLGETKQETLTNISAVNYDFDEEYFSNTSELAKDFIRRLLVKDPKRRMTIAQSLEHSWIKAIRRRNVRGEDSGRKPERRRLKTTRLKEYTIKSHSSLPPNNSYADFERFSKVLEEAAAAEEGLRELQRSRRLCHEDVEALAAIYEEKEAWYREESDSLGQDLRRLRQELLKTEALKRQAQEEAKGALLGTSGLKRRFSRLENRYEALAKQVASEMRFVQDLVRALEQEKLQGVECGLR
# T1 sequence (Q00536 whole entry): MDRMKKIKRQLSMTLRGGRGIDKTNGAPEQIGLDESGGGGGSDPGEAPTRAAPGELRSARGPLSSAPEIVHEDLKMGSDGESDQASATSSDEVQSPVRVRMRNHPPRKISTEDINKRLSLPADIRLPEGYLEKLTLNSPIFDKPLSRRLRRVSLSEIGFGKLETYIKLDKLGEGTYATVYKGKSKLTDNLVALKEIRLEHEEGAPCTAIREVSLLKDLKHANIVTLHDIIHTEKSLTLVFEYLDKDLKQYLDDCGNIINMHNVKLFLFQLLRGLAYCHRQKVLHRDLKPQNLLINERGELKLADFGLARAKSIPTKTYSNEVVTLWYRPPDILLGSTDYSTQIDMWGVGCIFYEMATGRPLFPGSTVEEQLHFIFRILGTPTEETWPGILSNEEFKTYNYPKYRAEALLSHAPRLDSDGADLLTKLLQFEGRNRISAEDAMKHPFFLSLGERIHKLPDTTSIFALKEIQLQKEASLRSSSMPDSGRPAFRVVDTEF
# T1 sequence (Q8ND76 whole entry partner): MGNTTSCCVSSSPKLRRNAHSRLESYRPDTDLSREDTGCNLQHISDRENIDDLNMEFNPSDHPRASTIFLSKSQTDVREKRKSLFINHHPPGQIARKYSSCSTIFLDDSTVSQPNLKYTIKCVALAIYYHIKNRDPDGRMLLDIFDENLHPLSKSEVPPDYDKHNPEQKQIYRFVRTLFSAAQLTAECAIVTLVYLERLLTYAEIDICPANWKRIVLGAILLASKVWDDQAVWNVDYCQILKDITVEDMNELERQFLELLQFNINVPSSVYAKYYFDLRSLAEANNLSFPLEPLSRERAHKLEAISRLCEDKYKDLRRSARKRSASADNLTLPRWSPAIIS
# T10 sequence (P49759 whole entry): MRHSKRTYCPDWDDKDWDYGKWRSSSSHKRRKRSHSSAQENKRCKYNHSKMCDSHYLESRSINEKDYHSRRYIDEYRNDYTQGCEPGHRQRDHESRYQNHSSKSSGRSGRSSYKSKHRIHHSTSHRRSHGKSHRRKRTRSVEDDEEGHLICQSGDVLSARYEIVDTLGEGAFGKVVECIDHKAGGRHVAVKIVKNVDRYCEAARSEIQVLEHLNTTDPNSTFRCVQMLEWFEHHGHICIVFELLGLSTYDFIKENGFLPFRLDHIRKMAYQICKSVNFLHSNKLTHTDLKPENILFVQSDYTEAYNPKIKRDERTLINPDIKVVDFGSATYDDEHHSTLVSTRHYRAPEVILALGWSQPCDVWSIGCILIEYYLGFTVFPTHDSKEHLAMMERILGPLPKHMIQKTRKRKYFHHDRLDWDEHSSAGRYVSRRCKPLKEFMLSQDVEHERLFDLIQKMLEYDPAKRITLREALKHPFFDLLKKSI
smiles,measurement,setting,value
C=CC(=O)Nc1cccc(Nc2nc(Nc3ccc(OCCOC)c(F)c3)ncc2F)c1 [Compound 2],inhibition at 3 µM,CDK16/cyclin Y,-3.73%
same,remaining activity at 3 µM,CDK16/cyclin Y; [1],104%
same,remaining activity at 3 µM,CDK16/cyclin Y; [2],103%
same,inhibition at 3 µM,BMX/ETK,98.9%
same,remaining activity at 3 µM,BMX/ETK; [1],0.93%
same,remaining activity at 3 µM,BMX/ETK; [2],1.23%
same,inhibition at 3 µM,WNK3,8.34%
same,remaining activity at 3 µM,WNK3; [1],91.3%
same,remaining activity at 3 µM,WNK3; [2],92%
same,inhibition at 3 µM,LRRK2,65.9%
same,remaining activity at 3 µM,LRRK2; [1],33%
same,remaining activity at 3 µM,LRRK2; [2],35.1%
same,inhibition at 3 µM,ZIPK/DAPK3,-11.3%
same,remaining activity at 3 µM,ZIPK/DAPK3; [1],109%
same,remaining activity at 3 µM,ZIPK/DAPK3; [2],113%
same,inhibition at 3 µM,PKCd,1.78%
same,remaining activity at 3 µM,PKCd; [1],100%
same,remaining activity at 3 µM,PKCd; [2],96%
same,inhibition at 3 µM,PKAcb,49.6%
same,remaining activity at 3 µM,PKAcb; [1],49.7%
same,remaining activity at 3 µM,PKAcb; [2],51.1%
same,inhibition at 3 µM,MARK3,-0.92%
same,remaining activity at 3 µM,MARK3; [1],101%
same,remaining activity at 3 µM,MARK3; [2],100%
same,inhibition at 3 µM,MLCK2/MYLK2,30.1%
same,remaining activity at 3 µM,MLCK2/MYLK2; [1],71.6%
same,remaining activity at 3 µM,MLCK2/MYLK2; [2],68.1%
same,inhibition at 3 µM,CLK1,24.1%
same,remaining activity at 3 µM,CLK1; [1],74.4%
same,remaining activity at 3 µM,CLK1; [2],77.4%
same,inhibition at 3 µM,CDK4/cyclin D3,5.15%
same,remaining activity at 3 µM,CDK4/cyclin D3; [1],95.5%
same,remaining activity at 3 µM,CDK4/cyclin D3; [2],94.2%
same,inhibition at 3 µM,MST1/STK4,30.6%
same,remaining activity at 3 µM,MST1/STK4; [1],70.2%
same,remaining activity at 3 µM,MST1/STK4; [2],68.7%
same,inhibition at 3 µM,PYK2,29.6%
same,remaining activity at 3 µM,PYK2; [1],70.6%
same,remaining activity at 3 µM,PYK2; [2],70.1%
